In patent US20070112061A1, “Heat- or singlet oxygen-generating agents and cancer treatment compositions comprising organic peroxide or chemiluminescent compound” (priority 2004, published 2007):

Columns and labels:
[1] = system: established cell line from human large intestine cancer; assay: MTT cytotoxicity assay (anticancer effect); format: cell-based; details: for Survival rate of cells: 100 μM, MTT assay; for viability at 1 µM / viability at 10 µM / viability at 100 µM: Homo sapiens, read-out: Survival rate of cancer cells; for viability at 1 µM / viability at 10 µM / viability at 100 µM / Survival rate of cancer cells: 48 hours incubation; for anticancer effect compared to MMC: concentration of 100 μM/L
Experimental: Cytotoxicity was determined as shown below using MTT method proposed by Mosmann et al. (Mosmann, T.; Rapid colorimetric assay for cellular growth and survival: application proliferation and cytotoxicity assays. J. Immunol. Meth. 65: 55-63, 1983). An established cell line from human large intestine cancer was adjusted on a 10% FCS-containing RPMI 1640 culture solution to have 5×10^3 cells/[…], plated in a 96-well microplate, and incubated for 48 hours. Then, the resultant was added with […] of a peroxide, and incubated under a 5% CO2 condition at 37° C. for 48 hours to determine cytotoxicity by MTT assay^1. MTT assay: Upon completion of the incubation, […] of MTT reagent (5 mg/ml in PBS) was added to each well, and then the formazan left on the bottom of the plate was added with 0.04N HCl to dissolve in isopropanol. OD was measured at a test wavelength and at a reference wavelength of 630 nm.
Survival rate in percentage was calculated by the following equation: Survival rate=(OD test value/OD reference value)×100 (%)

[2] = Solid-state reaction heat by differential thermal analyzer (DSC-50); format: physicochemical; details: for Solid reaction heat: solid state, heated to 80-180° C.
Experimental: (§1) Measurement of reaction heat: heat generated by above-mentioned compounds was measured by a differential thermal analyzer.
Heat measurement of a chemiluminescent system peroxide in the solid state was conducted using a differential thermal analyzer as follows: 2 to 3 mg of the peroxide was weighed, filled into an aluminum capsule, and heated gradually to 80-180° C. by DSC-50 (Shimadzu Corporation) to measure the generated heat.
Measurement of reaction heat: heat generated from above-mentioned compounds was measured by the differential thermal analyzer in accordance with above-mentioned [Measurement I]. Thermal measurement of a dioxetane compound in the solid state was carried out as follows: 2 to 3 mg of the dioxetane compound was weighed, filled into an aluminum capsule, and heated gradually to 80-180° C. by DSC-50 (Shimadzu Corporation) to measure the generated heat.

[3] = Solution reaction heat of chemiluminescent reaction started with 1N KOH/MeOH; format: physicochemical
Experimental: Reaction heat and chemiluminescent efficiency relating to chemiluminescent reaction of the peroxides (Chemical formula A to Chemical formula L) were measured. Further, the amount of imidazole formed that indicates generation efficiency of singlet oxygen generated by this reaction was measured.
as §1

Row | Compound | Solid reaction heat ([2]; peroxides) | Solution Reaction heat [3] | viability at 1 µM ([1]; anticancer agent 1 μM/ml) | viability at 10 µM ([1]; anticancer agent 10 μM/ml) | viability at 100 µM ([1]; anticancer agent 100 μM/ml) | also measured
1 | COc1ccc(C2(OC)OOC23C2CC4CC(C2)CC3C4)cc1 (centres unmarked) [Chemical formula M, 3-(2′-Spiroadamantane)-4-methoxy-4-(4″-methoxy)phenyl-1,2-dioxetane] |  |  |  |  |  | Survival rate of cells [1]: 55%; Solid reaction heat ([2]; dioxetanes): 68.8 kcal/mol
2 | CC(C)(C)[Si](C)(C)OOC1(c2ccccc2)N=C(c2ccccc2)N=C1c1ccccc1 (centres unmarked) [Chemical formula I, 4-t-Butyldimethylsilylperoxy-2,4,5-triphenyl-4H-isoimidazole] | 91.4 kcal/mol |  | 97.2% | 95.9% | 60.6% | melting point: 93.5 to 96 °C
3 | OOC1(c2cccc(O)c2)N=C(c2ccccc2)N=C1c1cccc(O)c1 (centres unmarked) [Chemical formula F, 4-Hydroperoxy-4,5-bis(3-hydroxyphenyl)-2-phenyl-4H-isoimidazole] |  |  |  | 87.4% | 42.2% | 
4 | CC(C)(C)[Si](C)(C)OOC1(c2ccccc2)N=C(c2cccc(C3=NC(OO[Si](C)(C)C(C)(C)C)(c4ccccc4)C(c4ccccc4)=N3)c2)N=C1c1ccccc1 (centres unmarked) [Chemical formula R] |  |  |  |  |  | generation heat [2]: 143 kcal/mol
5 | CO[C@@]12[C@H](COC(N)=O)C3=C(C(=O)C(C)=C(N)C3=O)N1C[C@@H]1N[C@@H]12 [MMC, mitomycin C, reference compound] |  |  |  |  |  | Survival rate of cancer cells ([1]; anticancer agent 1 μM/ml): 65.0%; Survival rate of cancer cells ([1]; anticancer agent 10 μM/ml): 28.0%; Survival rate of cancer cells ([1]; anticancer agent 100 μM/ml): 14.5%
6 | OOC1(c2ccccc2)N=C(c2ccc(C3=NC(OO)(c4ccccc4)C(c4ccccc4)=N3)cc2)N=C1c1ccccc1 (centres unmarked) [Chemical formula O] |  |  |  |  |  | generation heat [2]: 47.1 kcal/mol
7 | OOC1(c2ccccc2)N=C(c2cccc(C3=NC(OO)(c4ccccc4)C(c4ccccc4)=N3)c2)N=C1c1ccccc1 (centres unmarked) [Chemical formula Q] |  |  |  |  |  | generation heat [2]: 30.5 kcal/mol
8 | OOC1(c2ccc3c(c2)OCCOCCOCCOCCO3)N=C(c2ccccc2)N=C1c1ccc2c(c1)OCCOCCOCCOCCO2 (centres unmarked) [Chemical formula G, Bis(crown ether)iophineperoxide] |  |  |  | 87.2% | 48.2% | 
9 | COc1cccc(C2(OC)OOC23C2CC4CC(C2)CC3C4)c1 (centres unmarked) [Chemical formula N, 3-(2′-Spiroadamantane)-4-methoxy-4-(3″-methoxy)phenyl-1,2-dioxetane] |  |  |  |  |  | Survival rate of cells [1]: 67%; Solid reaction heat ([2]; dioxetanes): 66.8 kcal/mol
10 | CC(C)(C)[Si](C)(C)OOC1(c2ccccc2)N=C(c2ccc(C3=NC(OO[Si](C)(C)C(C)(C)C)(c4ccccc4)C(c4ccccc4)=N3)cc2)N=C1c1ccccc1 (centres unmarked) [Chemical formula P] |  |  |  |  |  | generation heat [2]: 147 kcal/mol
11 | OOC1(c2ccccc2)N=C(c2ccccc2O)N=C1c1ccccc1 (centres unmarked) [Chemical formula E, 4-Hydroperoxy-2-(2-hydroxyphenyl)-4,5-diphenyl-4H-isoimidazole] |  |  |  | 88.1% | 11.8% | anticancer effect compared to MMC [1]: comparable to the commercially available MMC

Further lines, with some results ahead:

Row | Solid reaction heat ([2]; peroxides) | Solution Reaction heat [3] | Compound | viability at 1 µM ([1]; anticancer agent 1 μM/ml) | viability at 10 µM ([1]; anticancer agent 10 μM/ml) | viability at 100 µM ([1]; anticancer agent 100 μM/ml) | also measured
12 | 52.3 kcal/mol | 48.7 kcal/mol | O=[N+]([O-])c1ccc(C2=NC(OO)(c3ccccc3)C(c3ccccc3)=N2)cc1 (centres unmarked) [Chemical formula J] |  |  |  | 
13 | 18.7 kcal/mol | 53.8 kcal/mol | OOC1(c2ccccc2)N=C(c2ccccc2)N=C1c1ccccc1 (centres unmarked) [Chemical formula A, 4-Hydroperoxy-2,4,5-triphenyl-4H-isoimidazole] | 100% | 100% | 78.3% | melting point: 108 to 110 °C (dec.)
14 | 35.3 kcal/mol | 46.0 kcal/mol | Nc1ccc(C2=NC(OO)(c3ccccc3)C(c3ccccc3)=N2)cc1 (centres unmarked) [Chemical formula H, 2-(4-Aminophenyl)-4-hydroperoxy-4,5-diphenyl-4H-isoimidazole] | 100% | 97.5% | 87.4% | 
15 | 53.6 kcal/mol |  | OOC1(c2ccccc2)N=C(c2ccc(O)cc2)N=C1c1ccccc1 (centres unmarked) [Chemical formula C, 4-Hydroperoxy-2-(4-hydroxyphenyl)-4,5-diphenyl-4H-imidazole] | 91.9% | 82.2% | 11.1% | anticancer effect compared to MMC [1]: comparable to the commercially available MMC; melting point: 125 to 127 °C (dec.)
16 | 61.0 kcal/mol | 66.3 kcal/mol | CN(C)c1ccc(C2=NC(OO)(c3ccc(F)cc3)C(c3ccc(F)cc3)=N2)cc1 (centres unmarked) [Chemical formula B, 4,5-Bis(4-fluorophenyl)-4-hydroperoxy-2-(4-dimethylaminophenyl)-4H-isoimidazole] | 100% | 93.7% | 37% | melting point: 125 to 128 °C (dec.)
17 | 15.0 kcal/mol | 22.4 kcal/mol | O=Cc1ccc(C2=NC(OO)(c3ccccc3)C(c3ccccc3)=N2)cc1 (centres unmarked) [Chemical formula K, 2-(4-Formylphenyl)-4-hydroperoxy-4,5-diphenyl-4H-isoimidazole] |  |  |  | 
18 | 47.6 kcal/mol |  | OOC1(c2ccccc2)N=C(c2cccc(O)c2)N=C1c1ccccc1 (centres unmarked) [Chemical formula D] | 93.3% | 92.2% | 71.2% | 
19 | 50.5 kcal/mol | 54.0 kcal/mol | Cc1cc(C)c(C2=NC(OO)(c3ccccc3)C(c3ccccc3)=N2)c(C)c1 (centres unmarked) [Chemical formula L, 4-Hydroperoxy-2-(2′,4′,6′-trimethylphenyl)-4,5-diphenyl-4H-isoimidazole] |  |  |  | 
